Reference: the supplement of paper PMC11061612

Legend:
Paclitaxel = compound: CC(=O)O[C@H]1C(=O)[C@@]2(C)[C@H]([C@H](OC(=O)c3ccccc3)[C@]3(O)C[C@H](OC(=O)[C@H](O)[C@@H](NC(=O)c4ccccc4)c4ccccc4)C(C)=C1C3(C)C)[C@]1(OC(C)=O)CO[C@@H]1C[C@@H]2O [Paclitaxel]; settings: max 3 µM
How it was run: (§1)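 In 1536-well plates, cancer cell lines in 7.5 μl DMEM/F12 or RPMI with 10% FBS spent 24 hours at 37°C and 5% CO2 and were then dosed for 72 hours with final DMSO typically 0.2%. Viability was read by CellTiter-Glo 2.0 luminescence and scaled between blank-well and DMSO-well means. The single-agent IC50 was fitted from dose responses using a logistic curve in a non-linear mixed effects model, and that logistic curve had two parameters.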

5-Fluorouracil = compound: O=c1[nH]cc(F)c(=O)[nH]1 [5-Fluorouracil]; settings: max 20 µM
How it was run: as §1

AZD6738 = compound: C[C@@H]1COCCN1C2=NC(=NC(=C2)C3(CC3)[S@](=N)(=O)C)C4=C5C=CNC5=NC=C4 [AZD6738]; settings: max 10 µM
How it was run: as §1

AZD0156 = compound: CN(C)CCCOc1ccc(-c2ccc3ncc4c(c3c2)n(C2CCOCC2)c(=O)n4C)cn1 [AZD0156]; settings: max 3 µM
How it was run: as §1

AZD5153 = compound: COc1nnc2ccc(N3CCC(c4ccc(OCCN5CCN(C)C(=O)[C@H]5C)cc4)CC3)nn12 [AZD5153]; settings: max 1 µM
How it was run: as §1

AZD5991 = compound: Cc1c2c(nn1C)CSCc1cc(n(C)n1)CSc1cc(c3ccccc3c1)OCCCc1c(C(=O)O)n(C)c3c-2c(Cl)ccc13 [AZD5991]; settings: max 1 µM
How it was run: as §1

Crizotinib = compound: C[C@@H](Oc1cc(-c2cnn(C3CCNCC3)c2)cnc1N)c1c(Cl)ccc(F)c1Cl [Crizotinib]; settings: max 10 µM
How it was run: as §1

Gefitinib = compound: COc1cc2ncnc(Nc3ccc(F)c(Cl)c3)c2cc1OCCCN1CCOCC1 [Gefitinib]; settings: max 10 µM
How it was run: as §1

Venetoclax = compound: CC1(C)CCC(CN2CCN(c3ccc(C(=O)NS(=O)(=O)c4ccc(NCC5CCOCC5)c([N+](=O)[O-])c4)c(Oc4cnc5[nH]ccc5c4)c3)CC2)=C(c2ccc(Cl)cc2)C1 [Venetoclax]; settings: max 1 µM
How it was run: as §1

[1] = compound: O=C(Nc1ccc2[nH]nc(-c3ccncc3)c2c1)[C@@H]1CCN(CC(=O)N2CCN(c3ccc(-c4ncccn4)cc3)CC2)C1; settings: max 5 µM
How it was run: as §1

AZD5363 = compound: C1CN(CCC1(C(=O)N[C@@H](CCO)C2=CC=C(C=C2)Cl)N)C3=NC=NC4=C3C=CN4 [AZD5363]; settings: max 10 µM
How it was run: as §1

AZD2811 = compound: CCN(CCO)CCCOc1ccc2c(Nc3cc(CC(=O)Nc4cccc(F)c4)[nH]n3)ncnc2c1 [AZD2811]; settings: max 1 µM
How it was run: as §1

AZD7648 = compound: Cc1cc2ncnn2cc1Nc1ncc2c(n1)n(C1CCOCC1)c(=O)n2C [AZD7648]; settings: max 10 µM
How it was run: as §1

Gemcitabine = compound: Nc1ccn([C@@H]2O[C@H](CO)[C@@H](O)C2(F)F)c(=O)n1 [Gemcitabine]; settings: max 0.3 µM
How it was run: as §1

SRA737 = compound: N#Cc1cnc(Nc2cc(NC[C@H]3CNCCO3)c(C(F)(F)F)cn2)cn1 [SRA737]; settings: max 10 µM
How it was run: as §1

AZD1390 = compound: CC(C)n1c(=O)n(C)c2cnc3cc(F)c(-c4ccc(OCCCN5CCCCC5)nc4)cc3c21 [AZD1390]; settings: max 0.3 µM
How it was run: as §1

Etoposide = compound: COc1cc([C@@H]2c3cc4c(cc3[C@@H](O[C@@H]3O[C@@H]5CO[C@@H](C)O[C@H]5[C@H](O)[C@H]3O)[C@H]3COC(=O)[C@H]23)OCO4)cc(OC)c1O [Etoposide]; settings: max 10 µM
How it was run: as §1

Selumetinib = compound: Cn1cnc2c(F)c(Nc3ccc(Br)cc3Cl)c(C(=O)NOCCO)cc21 [Selumetinib]; settings: max 10 µM
How it was run: as §1

Olaparib = compound: O=C(c1cc(Cc2n[nH]c(=O)c3ccccc23)ccc1F)N1CCN(C(=O)C2CC2)CC1 [Olaparib]; settings: max 10 µM
How it was run: as §1

AZD8186 = compound: C[C@@H](Nc1cc(F)cc(F)c1)c1cc(C(=O)N(C)C)cc2c(=O)cc(N3CCOCC3)oc12 [AZD8186]; settings: max 10 µM
How it was run: as §1

SN-38 = compound: CCc1c2c(nc3ccc(O)cc13)-c1cc3c(c(=O)n1C2)COC(=O)[C@]3(O)CC [SN-38]; settings: max 0.3 µM
How it was run: as §1

Dasatinib = compound: CC1=C(C(=CC=C1)Cl)NC(=O)C2=CN=C(S2)NC3=CC(=NC(=N3)C)N4CCN(CC4)CCO [Dasatinib]; settings: max 2 µM
How it was run: as §1

MK-2206 = compound: NC1(c2ccc(-c3nc4ccn5c(=O)[nH]nc5c4cc3-c3ccccc3)cc2)CCC1 [MK-2206]; settings: max 10 µM
How it was run: as §1

Palbociclib = compound: CC(=O)c1c(C)c2cnc(Nc3ccc(N4CCNCC4)cn3)nc2n(C2CCCC2)c1=O [Palbociclib]; settings: max 10 µM
How it was run: as §1

Carboplatin = compound: C1CC(C1)(C(=O)[O-])C(=O)[O-].N.N.[Pt+2] [Carboplatin]; settings: max 10 µM
How it was run: as §1

Trametinib = compound: CC(=O)Nc1cccc(-n2c(=O)n(C3CC3)c(=O)c3c(Nc4ccc(I)cc4F)n(C)c(=O)c(C)c32)c1 [Trametinib]; settings: max 1 µM
How it was run: as §1

Savolitinib = compound: C[C@@H](c1ccc2nccn2c1)n1nnc2ncc(-c3cnn(C)c3)nc21 [Savolitinib]; settings: max 1 µM
How it was run: as §1

Lapatinib = compound: CS(=O)(=O)CCNCc1ccc(-c2ccc3ncnc(Nc4ccc(OCc5cccc(F)c5)c(Cl)c4)c3c2)o1 [Lapatinib]; settings: max 10 µM
How it was run: as §1

AZD1775 = compound: C=CCn1c(=O)c2cnc(Nc3ccc(N4CCN(C)CC4)cc3)nc2n1-c1cccc(C(C)(C)O)n1 [AZD1775]; settings: max 3 µM
How it was run: as §1

Taselisib = compound: Cc1nc(-c2cn3c(n2)-c2ccc(-c4cnn(C(C)(C)C(N)=O)c4)cc2OCC3)n(C(C)C)n1 [Taselisib]; settings: max 10 µM
How it was run: as §1

AZD4320 = compound: CN(CC[C@H](CSC1=CC=CC=C1)NC2=C(C=C(C=C2)S(=O)(=O)NC(=O)C3=CC=C(C=C3)N4CCC(CC4)[C@H](C5=CC=CC=C5C6=CC=C(C=C6)Cl)O)S(=O)(=O)C(F)(F)F)CCO [AZD4320]; settings: max 1 µM
How it was run: as §1

Doxorubicin = compound: COc1cccc2c1C(=O)c1c(O)c3c(c(O)c1C2=O)C[C@@](O)(C(=O)CO)C[C@@H]3O[C@H]1C[C@H](N)[C@H](O)[C@H](C)O1 [Doxorubicin]; settings: max 1 µM
How it was run: as §1

Alisertib = compound: COc1cc(Nc2ncc3c(n2)-c2ccc(Cl)cc2C(c2c(F)cccc2OC)=NC3)ccc1C(=O)O [Alisertib]; settings: max 10 µM
How it was run: as §1

Prexasertib = compound: COc1cccc(OCCCN)c1-c1cc(Nc2cnc(C#N)cn2)n[nH]1 [Prexasertib]; settings: max 1 µM
How it was run: as §1

SG3199 = compound: CC1=CN2[C@@H](C1)C=NC3=CC(=C(C=C3C2=O)OC)OCCCCCOC4=C(C=C5C(=C4)N=C[C@@H]6CC(=CN6C5=O)C)OC [SG3199]; settings: max 0.001 µM
How it was run: as §1

Row | Cell Line | IC50, cell viability 72 h (Paclitaxel) [µM] | IC50, cell viability 72 h (5-Fluorouracil) [µM] | IC50, cell viability 72 h (AZD6738) [µM] | IC50, cell viability 72 h (AZD0156) [µM] | IC50, cell viability 72 h (AZD5153) [µM] | IC50, cell viability 72 h (AZD5991) [µM] | IC50, cell viability 72 h (Crizotinib) [µM] | IC50, cell viability 72 h (Gefitinib) [µM] | IC50, cell viability 72 h (Venetoclax) [µM] | IC50, cell viability 72 h [1] [µM] | IC50, cell viability 72 h (AZD5363) [µM] | IC50, cell viability 72 h (AZD2811) [µM] | IC50, cell viability 72 h (AZD7648) [µM] | IC50, cell viability 72 h (Gemcitabine) [µM] | IC50, cell viability 72 h (SRA737) [µM] | IC50, cell viability 72 h (AZD1390) [µM] | IC50, cell viability 72 h (Etoposide) [µM] | IC50, cell viability 72 h (Selumetinib) [µM] | IC50, cell viability 72 h (Olaparib) [µM] | IC50, cell viability 72 h (AZD8186) [µM] | IC50, cell viability 72 h (SN-38) [µM] | IC50, cell viability 72 h (Dasatinib) [µM] | IC50, cell viability 72 h (MK-2206) [µM] | IC50, cell viability 72 h (Palbociclib) [µM] | IC50, cell viability 72 h (Carboplatin) [µM] | IC50, cell viability 72 h (Trametinib) [µM] | IC50, cell viability 72 h (Savolitinib) [µM] | IC50, cell viability 72 h (Lapatinib) [µM] | IC50, cell viability 72 h (AZD1775) [µM] | IC50, cell viability 72 h (Taselisib) [µM] | IC50, cell viability 72 h (AZD4320) [µM] | IC50, cell viability 72 h (Doxorubicin) [µM] | IC50, cell viability 72 h (Alisertib) [µM] | IC50, cell viability 72 h (Prexasertib) [µM] | IC50, cell viability 72 h (SG3199) [µM]
1 | NB12 (Neuroblastoma) | 0.015 | > 20 | > 10 | > 3 | 0.217 | > 1 | 9.85 | > 10 | 0.333 | > 5 | > 10 | 0.342 | > 10 | 0.0574 | > 10 | > 0.3 | > 10 | > 10 | > 10 | > 10 | 0.00661 | > 2 | 7.04 | > 10 | > 10 | > 1 | > 1 | > 10 | 0.731 | 0.968 | 0.0311 |  |  |  | 
2 | PC-3_[JPC-3] (Lung Adenocarcinoma) | 0.416 | > 20 | > 10 | > 3 | > 1 | > 1 | > 10 |  | > 1 | > 5 | > 10 | > 1 | > 10 | 0.23 | > 10 | > 0.3 | > 10 | > 10 | > 10 | > 10 | 0.0359 | 0.853 | > 10 | > 10 | > 10 | > 1 | > 1 | 5.12 | > 3 | > 10 | > 1 | > 1 | > 10 | > 1 | > 0.001
3 | SK-MEL-2 (Melanoma) | 0.402 | > 20 | > 10 | > 3 | 0.345 | 0.343 | > 10 | > 10 | > 1 | 0.716 | > 10 | > 1 | > 10 | > 0.3 | > 10 | > 0.3 | > 10 | 3.99 | > 10 | > 10 | > 0.3 | > 2 | > 10 | > 10 | > 10 | 0.0324 | > 1 | > 10 | > 3 | > 10 | > 1 |  |  |  | 
